According to ChEMBL document CHEMBL1201862, “PubChem BioAssay data set” (2004):
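Results reflect a 48-hour exposure of cells in 96-well plates to compound at five concentrations. At the GI50, growth is halved.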 Activity calls are given as the source filed them. No stated cut-off is given here; in the data, active = GI50 up to about 1.1 µM and inactive = higher.

Experiments:
Assay in all cases: NCI-60 cell line screen, 48 h
786-0 = tested on: 786-0
A498 = tested on: A498
A549 = tested on: A549
ACHN = tested on: ACHN
CAKI-1 = tested on: CAKI-1
CCRF-CEM = tested on: CCRF-CEM
COLO 205 = tested on: COLO 205
DLD-1 = tested on: DLD-1
DMS-114 = tested on: DMS-114
DMS-273 = tested on: DMS-273
EKVX = tested on: EKVX
HCC 2998 = tested on: HCC 2998
HCT-116 = tested on: HCT-116
HCT-15 = tested on: HCT-15
HL-60 = tested on: HL-60
HOP-18 = tested on: HOP-18
HOP-62 = tested on: HOP-62
HOP-92 = tested on: HOP-92
HT-29 = tested on: HT-29
IGROV-1 = tested on: IGROV-1
K562 = tested on: K562
KM-20L2 = tested on: KM-20L2
KM12 = tested on: KM12
LOX IMVI = tested on: LOX IMVI
LXFL 529 = tested on: LXFL 529
M14 = tested on: M14
M19-MEL = tested on: M19-MEL
MOLT-4 = tested on: MOLT-4
Malme-3M = tested on: Malme-3M
NCI-H226 = tested on: NCI-H226
NCI-H23 = tested on: NCI-H23
NCI-H460 = tested on: NCI-H460
NCI-H522 = tested on: NCI-H522
OVCAR-3 = tested on: OVCAR-3
OVCAR-4 = tested on: OVCAR-4
OVCAR-5 = tested on: OVCAR-5
OVCAR-8 = tested on: OVCAR-8
RPMI-8226 = tested on: RPMI-8226
RXF 631 = tested on: RXF 631
SF-268 = tested on: SF-268
SF-295 = tested on: SF-295
SK-MEL-28 = tested on: SK-MEL-28
SK-MEL-2 = tested on: SK-MEL-2
SK-OV-3 = tested on: SK-OV-3
SN12C = tested on: SN12C
SNB-19 = tested on: SNB-19
SNB-75 = tested on: SNB-75
SNB-78 = tested on: SNB-78
SW-620 = tested on: SW-620
TK-10 = tested on: TK-10
U-251 = tested on: U-251
UACC-257 = tested on: UACC-257
UACC-62 = tested on: UACC-62
UO-31 = tested on: UO-31
XF498 = tested on: XF498
RXF 393 = tested on: RXF 393
SF-539 = tested on: SF-539
SK-MEL-5 = tested on: SK-MEL-5
SR = tested on: SR

For `COC(=O)C1CC/C(=N/C2c3ccccc3-c3ccccc32)N1` (stereo not drawn), the GI50 (786-0) was > 100 µM (inactive), the GI50 (A498) was > 100 µM (inactive) and the GI50 (A549) was > 100 µM (inactive). For the same compound, the GI50 (ACHN) was > 100 µM (inactive), the GI50 (CAKI-1) was > 100 µM (inactive) and the GI50 (CCRF-CEM) was 58.6 µM (inactive). For the same compound, the GI50 (COLO 205) was 47.8 µM (inactive), the GI50 (DLD-1) was > 100 µM (inactive) and the GI50 (DMS-114) was 43.8 µM (inactive). For the same compound, the GI50 (DMS-273) was > 100 µM (inactive), the GI50 (EKVX) was > 100 µM (inactive) and the GI50 (HCC 2998) was 57.9 µM (inactive). For the same compound, the GI50 (HCT-116) was > 100 µM (inactive), the GI50 (HCT-15) was over 100 µM and the GI50 (HL-60) was > 100 µM (inactive). The GI50 (HOP-18) was > 100 µM (inactive), the GI50 (HOP-62) was > 100 µM (inactive) and the GI50 (HOP-92) was 14.1 µM (inactive). The GI50 (HT-29) was > 100 µM (inactive), the GI50 (IGROV-1) was > 100 µM (inactive) and the GI50 (K562) was > 100 µM (inactive). For the same compound, the GI50 (KM-20L2) was > 100 µM (inactive), the GI50 (KM12) was > 100 µM (inactive) and the GI50 (LOX IMVI) was > 10 µM (inactive). The GI50 (LXFL 529) was > 100 µM (inactive), the GI50 (M14) was > 100 µM (inactive) and the GI50 (M19-MEL) was > 100 µM (inactive). The GI50 (MOLT-4) was 24.2 µM (inactive), the GI50 (Malme-3M) was > 100 µM (inactive) and the GI50 (NCI-H226) was > 100 µM (inactive). The GI50 (NCI-H23) was > 100 µM (inactive), the GI50 (NCI-H460) was 32.7 µM (inactive) and the GI50 (NCI-H522) was 19.6 µM (inactive). The GI50 (OVCAR-3) was 74.8 µM (inactive), the GI50 (OVCAR-4) was > 100 µM (inactive) and the GI50 (OVCAR-5) was > 100 µM (inactive). The GI50 (OVCAR-8) was > 100 µM (inactive), the GI50 (RPMI-8226) was 61.5 µM (inactive) and the GI50 (RXF 631) was > 100 µM (inactive). The GI50 (SF-268) was > 100 µM (inactive), the GI50 (SF-295) was > 100 µM (inactive) and the GI50 (SK-MEL-28) was > 100 µM (inactive). For the same compound, the GI50 (SK-MEL-2) was > 100 µM (inactive), the GI50 (SK-OV-3) was > 100 µM (inactive) and the GI50 (SN12C) was > 100 µM (inactive). For the same compound, the GI50 (SNB-19) was > 100 µM (inactive), the GI50 (SNB-75) was 58.6 µM (inactive) and the GI50 (SNB-78) was > 100 µM (inactive). For the same compound, the GI50 (SW-620) was > 100 µM (inactive), the GI50 (TK-10) was > 100 µM (inactive) and the GI50 (U-251) was > 100 µM (inactive). The GI50 (UACC-257) was > 100 µM (inactive), the GI50 (UACC-62) was 63 µM (inactive) and the GI50 (UO-31) was > 100 µM (inactive). The GI50 (XF498) was > 100 µM (inactive).
For `CC1(C(=O)O)CCC[C@@]2(C)C1CC[C@@]1(C)c3cocc3CCC21` (stereo partly drawn), the GI50 (786-0) was 83.6 µM (inactive), the GI50 (A498) was > 100 µM (inactive) and the GI50 (A549) was 70.8 µM (inactive). For the same compound, the GI50 (ACHN) was > 100 µM (inactive), the GI50 (CAKI-1) was > 100 µM (inactive) and the GI50 (CCRF-CEM) was > 100 µM (inactive). For the same compound, the GI50 (COLO 205) was > 100 µM (inactive), the GI50 (DLD-1) was > 100 µM (inactive) and the GI50 (DMS-114) was > 100 µM (inactive). For the same compound, the GI50 (DMS-273) was > 100 µM (inactive), the GI50 (EKVX) was > 100 µM (inactive) and the GI50 (HCC 2998) was > 100 µM (inactive). For the same compound, the GI50 (HCT-116) was 72.8 µM (inactive), the GI50 (HCT-15) was over 100 µM and the GI50 (HL-60) was > 100 µM (inactive). The GI50 (HOP-18) was > 100 µM (inactive), the GI50 (HOP-62) was > 100 µM (inactive) and the GI50 (HOP-92) was > 100 µM (inactive). The GI50 (HT-29) was > 100 µM (inactive), the GI50 (IGROV-1) was > 100 µM (inactive) and the GI50 (K562) was 40.9 µM (inactive). For the same compound, the GI50 (KM-20L2) was > 100 µM (inactive), the GI50 (KM12) was > 100 µM (inactive) and the GI50 (LOX IMVI) was > 100 µM (inactive). For the same compound, the GI50 (LXFL 529) was > 100 µM (inactive), the GI50 (M14) was > 100 µM (inactive) and the GI50 (M19-MEL) was > 100 µM (inactive). For the same compound, the GI50 (MOLT-4) was > 100 µM (inactive), the GI50 (Malme-3M) was > 100 µM (inactive) and the GI50 (NCI-H226) was > 100 µM (inactive). For the same compound, the GI50 (NCI-H23) was > 100 µM (inactive), the GI50 (NCI-H460) was > 100 µM (inactive) and the GI50 (OVCAR-3) was > 100 µM (inactive). The GI50 (OVCAR-4) was > 100 µM (inactive), the GI50 (OVCAR-5) was > 100 µM (inactive) and the GI50 (OVCAR-8) was > 100 µM (inactive). For the same compound, the GI50 (RPMI-8226) was > 100 µM (inactive), the GI50 (RXF 393) was > 100 µM (inactive) and the GI50 (RXF 631) was > 100 µM (inactive). For the same compound, the GI50 (SF-268) was > 100 µM (inactive), the GI50 (SF-295) was > 100 µM (inactive) and the GI50 (SF-539) was > 100 µM (inactive). The GI50 (SK-MEL-28) was > 100 µM (inactive), the GI50 (SK-MEL-2) was > 100 µM (inactive) and the GI50 (SK-MEL-5) was > 100 µM (inactive). For the same compound, the GI50 (SK-OV-3) was > 100 µM (inactive), the GI50 (SN12C) was > 100 µM (inactive) and the GI50 (SNB-19) was > 100 µM (inactive). The GI50 (SNB-75) was > 100 µM (inactive), the GI50 (SNB-78) was > 100 µM (inactive) and the GI50 (SR) was > 100 µM (inactive). For the same compound, the GI50 (SW-620) was > 100 µM (inactive), the GI50 (TK-10) was > 100 µM (inactive) and the GI50 (U-251) was 97.7 µM (inactive). For the same compound, the GI50 (UACC-257) was > 100 µM (inactive), the GI50 (UACC-62) was > 100 µM (inactive) and the GI50 (UO-31) was > 100 µM (inactive). For the same compound, the GI50 (XF498) was > 100 µM (inactive).
